Patent publication US6676954B2, “Controlled release compositions” (Rohm and Haas Company, priority 2000, dated 2004)
Marks after values point to notes of the source that are not given here.

Experiments:
[1] = Relative release test: 3-isothiazolone released from the solid composition into water with 0.3% sodium diethylhexylsulfosuccinate (HPLC); type: physicochemical; conditions: no paint
Experimental: The amount of 3-isothiazolone compound released from each controlled release composition was determined according to the following general procedure. A weighed amount of controlled release composition (0.014 g, prepared as described in Example 1) was placed in a 250 mL sample jar. To the jar was then added 200 mL of water containing 0.3% of sodium diethylhexylsulfosuccinate. The solution was then gently stirred to ensure no foam was formed. Aliquots (0.5 mL) were taken at 5 and 24 hours and transferred to a microcentrifuge tube. Each aliquot was then centrifuged at 14,000 rpm for 3 minutes. The supernatant was then removed and analyzed by HPLC (high pressure liquid chromatography) for the amount of the 3-isothiazolone compound. The microcentrifuge tube was then washed with 0.5 mL of water containing 0.3% of sodium diethylhexylsulfosuccinate and the wash liquid added to the sample jar. This ensured that none of the particles removed during sampling was lost and that the volume in the jar remained constant.
The solid compositions were then evaluated using (1) the salt water leaching test as described in Example 3 and the relative release test (5-day) described in Example 2. […]

[2] = Salt water (synthetic-seawater) leaching test: 14C-labelled ITA remaining in the marine paint film; type: physicochemical
Experimental: The efficacy of the 3-isothiazolone/carbon-based adsorbent compositions of the present invention in a paint film was determined by a salt water (synthetic-seawater) leaching evaluation. An appropriate amount of 4,5-dichloro-2-n-octyl-3-isothiazolone (ITA), together with carbon-based adsorbent (C-1, C-2, C-3):
was added to 10 g of a marine antifouling paint formulation (2 different paint types, P-1 and P-2, see below) in a milling jar to provide a final 3-isothiazolone concentration of 2% based on total combined weight of the 3-isothiazolone/carbon-based adsorbent/paint formulation mixture. Paint films were then drawn on silanized microslides to a thickness of 0.076 mm (0.003 inch) for the rosin-based paint formulation (P-1) and to a thickness of 0.178 mm (0.007 inch) for the polishing type marine antifouling paint (P-2). The paint films were dried for 2 days and then the microslides were placed in a synthetic-seawater fish tank for 1 month. The synthetic-seawater was periodically circulated through a filter cartridge containing activated carbon and Celex™ 20 chelating agent (to remove 3-isothiazolone and copper ions). At various times the paint slides were removed and analyzed. The amount of 4,5-dichloro-2-n-octyl-3-isothiazolone remaining in the paint film after exposure to synthetic-seawater was determined by radioactive labeling (^14C-labeled 4,5-dichloro-2-n-octyl-3-isothiazolone).
The salt water leaching test and radioactive labeling measurements were conducted as follows: a small amount of ^14C-4,5-dichloro-2-n-octyl-3-isothiazolone was incorporated with ^12C-4,5-dichloro-2-n-octyl-3-isothiazolone into paint and the radioactivity of trace ^14C-molecules was measured by a Phosphorimager SI spectrometer (manufactured by Molecular Dynamics Co.); a ratio of 4×10^−5 for ^14C-4,5-dichloro-2-n-octyl-3-isothiazolone to every gram of ^12C-4,5-dichloro-2-n-octyl-3-isothiazolone was used.
The prepared slides were placed in synthetic-seawater prepared as follows: the following ingredients (20 liters deionized water, 1350 g NaCl, 225 g MgCl2.6H2O, and 321.6 g Na2B4O7.10H2O in 6 liters deionized water) were combined and adjusted to a pH of 8.2 with 1.0 M HCl solution, after which the total volume was made up to 30 liters with additional deionized water.
The solid compositions were then evaluated using (1) the salt water leaching test as described in Example 3 and the relative release test (5-day) described in Example 2. A summary of the performance of the three inorganic carriers (diatomaceous earth, aluminosilicate and magnesium silicate) relative to the carbon-based adsorbent (activated carbon) composition of the present invention is presented in Table 4.

[3] = paint P-1 (rosin-based), 2% ITA, synthetic seawater
[4] = paint P-2 (polishing type), 2% ITA, synthetic seawater

CCCCCCCCn1sc(Cl)c(Cl)c1=O [None, 4,5-dichloro-2-n-octyl-3-isothiazolone]
% 4,5-dichloro-2-n-octyl-3-isothiazolone retained (5-day surfactant solution) ([1]; 5-day release test, retention as stated in the text): 0%
5 Day % Released ([1]; carrier loaded with 30% ITA, 5-day relative release test in surfactant solution): 100%
% ITA Retained in Paint Film, 0 Days [2, 3]: 100%
% ITA Retained in Paint Film, 7 Days [2, 3]: 82%
% ITA Retained in Paint Film, 14 Days (interpolated) ([2]; paint P-1 (rosin-based), 2% ITA, synthetic seawater, 14 days, values in are interpolated): (78) %
% ITA Retained in Paint Film, 30 Days [2, 3]: 70%
Salt Water Leaching Test (28 Days) (% Retained in Paint Film) ([2]; paint P-1, carrier loaded with 30% ITA, 28 days in synthetic seawater): 64%
% ITA Retained in Paint Film, 0 Days [2, 4]: 100%
% ITA Retained in Paint Film, 7 Days [2, 4]: 31-44* %
% ITA Retained in Paint Film, 21 Days ([2]; paint P-2 (polishing type), 2% ITA, synthetic seawater, 21 days): 18%
% ITA Retained in Paint Film, 30 Days [2, 4]: 13%
